Values quoted from earlier work, collected in US20030152481A1 (priority 2002, published 2003).

Conditions: rat, in vivo

Question: With `OCCc1ccccc1` [2-phenylethanol] as the molecule, how does the “oral LD50” value read?
Answer: Its value is 1790 mg/kg.
